Measurements published in US8361487B1, “Ant controllers and method for application thereof” (BASF Aktiengesellschaft, priority 1999, dated 2013).

Test system: Coptotermes formosanus Shiraki
Assay: Test Example 1: termite-killing test on treated filter paper
Format: in vivo
Details: mortality class; 1 ml of a 500 ppm solution on filter paper, seven days after inoculation, triplicate group of 10 insects
Description: A filter paper was spread in a glass dish having a diameter of 9 cm, onto which was dropped 1 ml of a 500 ppm solution of the ant controller of the present invention. Then, the filter paper was inoculated with Coptotermes formosanus Shiraki. Seven days after the inoculation, percentage of dead insects was investigated, from which mortality was calculated. The test was carried out with triplicate group of 10 insects.

SMILES	Termite-killing effect
CC(C(=NNC(=O)Nc1ccc(OC(F)(F)F)cc1)c1ccccc1)c1ccccc1 (mixture of isomers) [Compound 50]	A (100)
O=C(NN=C(c1ccccc1)C(O)c1ccc(Cl)cc1)Nc1ccc(OC(F)(F)F)cc1 (racemic) [Compound 61]	A (100)
N#Cc1ccc(C(O)C(=NNC(=O)Nc2ccc(Cl)cc2)c2ccccc2)cc1 (racemic) [Compound 62]	A (100)
N#Cc1ccc(C(O)C(=NNC(=O)Nc2ccc(OC(F)(F)F)cc2)c2ccccc2)cc1 (racemic) [Compound 63]	A (100)
CC(C(=NNC(=O)Nc1ccc(Cl)cc1)c1ccccc1)c1ccccc1 (racemic) [Compound 64]	A (100)
CC(C(=NNC(=S)Nc1ccc(OC(F)(F)F)cc1)c1ccccc1)c1ccccc1 (racemic) [Compound 65]	C (89-80)
COC(C(=NNC(=O)Nc1ccc(Cl)cc1)c1ccccc1)c1ccccc1 (racemic) [Compound 66]	A (100)
COC(C(=NNC(=O)Nc1ccc(OC(F)(F)F)cc1)c1ccccc1)c1ccccc1 (racemic) [Compound 67]	A (100)
CC(C)OC(C(=NNC(=O)Nc1ccc(Cl)cc1)c1ccccc1)c1ccccc1 (racemic) [Compound 68]	A (100)
CC(C)OC(C(=NNC(=O)Nc1ccc(OC(F)(F)F)cc1)c1ccccc1)c1ccccc1 (racemic) [Compound 69]	B (99-90)
CC(C)COC(C(=NNC(=O)Nc1ccc(Cl)cc1)c1ccccc1)c1ccccc1 (racemic) [Compound 70]	A (100)
CC(C)COC(C(=NNC(=O)Nc1ccc(OC(F)(F)F)cc1)c1ccccc1)c1ccccc1 (racemic) [Compound 71]	A (100)
CC(=O)OC(C(=NNC(=O)Nc1ccc(OC(F)(F)F)cc1)c1ccccc1)c1ccccc1 (racemic) [Compound 72]	A (100)
O=C(NN=C(c1ccccc1)C(OC(=O)c1ccccc1)c1ccccc1)Nc1ccc(OC(F)(F)F)cc1 (racemic) [Compound 73]	A (100)
CN(N=C(c1ccccc1)C(O)c1ccccc1)C(=O)Nc1ccc(Cl)cc1 (racemic) [Compound 74]	A (100)
CN(N=C(c1ccccc1)C(O)c1ccccc1)C(=O)Nc1ccc(OC(F)(F)F)cc1 (racemic) [Compound 75]	A (100)
O=C(NNC(Cc1ccccc1)c1ccccc1)Nc1ccc(Cl)cc1 (racemic) [Compound 84]	A (100)
O=C(NNC(Cc1ccccc1)c1ccccc1)Nc1ccc(OC(F)(F)F)cc1 (racemic) [Compound 85]	C (89-80)
O=C(NNC(Cc1ccc(Cl)cc1)c1ccccc1)Nc1ccc(OC(F)(F)F)cc1 (racemic) [Compound 86]	A (100)
N#Cc1ccc(CC(NNC(=O)Nc2ccc(OC(F)(F)F)cc2)c2ccccc2)cc1 (racemic) [Compound 87]	C (89-80)
O=C(NNC(Cc1ccc([N+](=O)[O-])cc1)c1ccccc1)Nc1ccc(OC(F)(F)F)cc1 (racemic) [Compound 88]	A (100)
O=C(NNC(Cc1ccc(Cl)cc1)c1cccc(F)c1)Nc1ccc(OC(F)(F)F)cc1 (racemic) [Compound 89]	B (99-90)
O=C(NNC(Cc1ccc(Cl)cc1)c1cccc(Cl)c1)Nc1ccc(OC(F)(F)F)cc1 (racemic) [Compound 90]	A (100)

SMILES	Termite-killing effect
N#Cc1ccc(CC(NNC(=O)Nc2ccc(OC(F)(F)F)cc2)c2cccc(C(F)(F)F)c2)cc1 (single isomer, unassigned) [Compound 117]	A (100)
N#Cc1ccc(CC(NNC(=O)Nc2ccc(OC(F)(F)F)cc2)c2cccc(C(F)(F)F)c2)cc1 (single isomer, unassigned) [Compound 118]	D (79-50)
O=C(NN=C(Cc1ccccc1)c1ccccc1)Nc1ccc(Cl)cc1 [Compound 1]	A (100)
O=C(NN=C(Cc1ccccc1)c1ccccc1)Nc1ccc(OC(F)(F)F)cc1 [Compound 2]	B (99-90)
O=C(NN=C(Cc1ccc(Cl)cc1)c1ccccc1)Nc1ccc(Cl)cc1 [Compound 3]	A (100)
O=C(NN=C(Cc1ccc(Cl)cc1)c1ccccc1)Nc1ccc(OC(F)(F)F)cc1 [Compound 4]	A (100)
N#Cc1ccc(CC(=NNC(=O)Nc2ccc(Cl)cc2)c2ccccc2)cc1 [Compound 5]	A (100)
N#Cc1ccc(CC(=NNC(=S)Nc2ccc(Cl)cc2)c2ccccc2)cc1 [Compound 6]	A (100)
N#Cc1ccc(CC(=NNC(=S)Nc2ccc(OC(F)(F)F)cc2)c2ccccc2)cc1 [Compound 7]	A (100)
O=C(NN=C(Cc1ccc([N+](=O)[O-])cc1)c1ccccc1)Nc1ccc(Cl)cc1 [Compound 10]	A (100)
O=[N+]([O-])c1ccc(CC(=NNC(=S)Nc2ccc(Cl)cc2)c2ccccc2)cc1 [Compound 11]	A (100)
O=C(NN=C(Cc1ccc([N+](=O)[O-])cc1)c1ccccc1)Nc1ccc(OC(F)(F)F)cc1 [Compound 12]	A (100)
O=[N+]([O-])c1ccc(CC(=NNC(=S)Nc2ccc(OC(F)(F)F)cc2)c2ccccc2)cc1 [Compound 13]	A (100)
O=C(NN=C(Cc1ccc([N+](=O)[O-])cc1)c1ccccc1)Nc1ccc(SC(F)(F)F)cc1 [Compound 14]	A (100)
O=C(NN=C(Cc1ccccc1)c1cccc(Cl)c1)Nc1ccc(OC(F)(F)F)cc1 [Compound 15]	B (99-90)
O=C(NN=C(Cc1ccc(Cl)cc1)c1cccc(Cl)c1)Nc1ccc(OC(F)(F)F)cc1 [Compound 16]	C (89-80)
N#Cc1ccc(CC(=NNC(=O)Nc2ccc(Cl)cc2)c2cccc(Cl)c2)cc1 [Compound 17]	A (100)
N#Cc1ccc(CC(=NNC(=S)Nc2ccc(OC(F)(F)F)cc2)c2cccc(Cl)c2)cc1 [Compound 20]	A (100)
N#Cc1ccc(CC(=NNC(=O)Nc2ccc(SC(F)(F)F)cc2)c2cccc(Cl)c2)cc1 [Compound 21]	A (100)
N#Cc1ccc(CC(=NNC(=O)Nc2ccc([S+]([O-])C(F)(F)F)cc2)c2cccc(Cl)c2)cc1 (stereo not drawn) [Compound 22]	B (99-90)
N#Cc1ccc(CC(=NNC(=O)Nc2ccc(S(=O)(=O)C(F)(F)F)cc2)c2cccc(Cl)c2)cc1 [Compound 23]	A (100)
O=C(NN=C(Cc1ccccc1)c1cccc(Br)c1)Nc1ccc(Cl)cc1 [Compound 24]	C (89-80)
O=C(NN=C(Cc1ccccc1)c1cccc(Br)c1)Nc1ccc(OC(F)(F)F)cc1 [Compound 25]	D (79-50)

SMILES	Termite-killing effect
N#Cc1ccc(CC(=NNC(=O)Nc2ccc(Cl)cc2)c2cccc(Br)c2)cc1 [Compound 26]	A (100)
N#Cc1ccc(CC(=NNC(=O)Nc2ccc(OC(F)(F)F)cc2)c2cccc(Br)c2)cc1 [Compound 27]	A (100)
N#Cc1ccc(CC(=NNC(=O)Nc2ccc(SC(F)(F)F)cc2)c2cccc(Br)c2)cc1 [Compound 28]	C (89-80)
N#Cc1ccc(CC(=NNC(=O)Nc2ccc([S+]([O-])C(F)(F)F)cc2)c2cccc(Br)c2)cc1 (stereo not drawn) [Compound 29]	C (89-80)
N#Cc1ccc(CC(=NNC(=O)Nc2ccc(S(=O)(=O)C(F)(F)F)cc2)c2cccc(Br)c2)cc1 [Compound 30]	A (100)
O=C(NN=C(Cc1ccccc1)c1cccc(F)c1)Nc1ccc(Cl)cc1 [Compound 31]	A (100)
O=C(NN=C(Cc1ccccc1)c1cccc(F)c1)Nc1ccc(OC(F)(F)F)cc1 [Compound 32]	A (100)
O=C(NN=C(Cc1ccc(Cl)cc1)c1cccc(F)c1)Nc1ccc(OC(F)(F)F)cc1 [Compound 33]	C (89-80)
O=C(NN=C(Cc1ccc(Cl)cc1)c1cccc(F)c1)Nc1ccc(Cl)cc1 [Compound 34]	A (100)
N#Cc1ccc(CC(=NNC(=O)Nc2ccc(OC(F)(F)F)cc2)c2cccc(F)c2)cc1 [Compound 35]	A (100)
N#Cc1ccc(CC(=NNC(=O)Nc2ccc(Cl)cc2)c2cccc(I)c2)cc1 [Compound 36]	B (99-90)
N#Cc1ccc(CC(=NNC(=O)Nc2ccc(OC(F)(F)F)cc2)c2cccc(I)c2)cc1 [Compound 37]	A (100)
Cc1cccc(C(Cc2ccccc2)=NNC(=O)Nc2ccc(Cl)cc2)c1 [Compound 38]	B (99-90)
Cc1cccc(C(Cc2ccccc2)=NNC(=O)Nc2ccc(OC(F)(F)F)cc2)c1 [Compound 39]	A (100)
Cc1cccc(C(Cc2ccc(C#N)cc2)=NNC(=O)Nc2ccc(Cl)cc2)c1 [Compound 40]	D (79-50)
Cc1cccc(C(Cc2ccc(C#N)cc2)=NNC(=O)Nc2ccc(OC(F)(F)F)cc2)c1 [Compound 41]	A (100)
O=C(NN=C(Cc1ccccc1)c1cccc(C(F)(F)F)c1)Nc1ccc(Cl)cc1 [Compound 42]	A (100)
O=C(NN=C(Cc1ccccc1)c1cccc(C(F)(F)F)c1)Nc1ccc(OC(F)(F)F)cc1 [Compound 43]	A (100)
N#Cc1ccc(CC(=NNC(=S)Nc2ccc(OC(F)(F)F)cc2)c2cccc(C(F)(F)F)c2)cc1 [Compound 45]	A (100)
CN(C(=O)NN=C(Cc1ccccc1)c1ccccc1)c1ccc(Cl)cc1 [Compound 46]	A (100)
CN(C(=O)NN=C(Cc1ccccc1)c1ccccc1)c1ccc(OC(F)(F)F)cc1 [Compound 47]	A (100)
CC(C(=NNC(=O)Nc1ccc(Cl)cc1)c1ccccc1)c1ccccc1 (stereo not drawn) [Compound 48]	A (100)
CC(C(=NNC(=O)Nc1ccc(Br)cc1)c1ccccc1)c1ccccc1 (stereo not drawn) [Compound 49]	C (89-80)
